Measured values published in US9101616B2, “Aryl substituted carboxamide derivatives as calcium or sodium channel blockers” (RaQualia Pharma Inc., priority 2009, dated 2015).

Target: T1, human T-type channel alpha-1H (CaV 3.2) (Homo sapiens, UniProt O95180)
T1 construct: expressed in transfected cells; host or cells: HEK 293
Assay: Ca2+ Influx Assay (cell-based fluorescent, FDSS)
Details: HEK 293 cells expressing human CaV 3.2
Description: Inhibition of T-type calcium channel activity was determined by cell-based flu-orescent Ca^2+ influx assay, in which potassium ionophore was added to decrease resting membrane potential and extra-cellular high-K^+ stimulation was used to modulate the membrane potential of the cell. The changes in fluorescent signal were monitored by the cell imaging technology by Hamamatsu Photonics's Functional Drug Screening System (FDSS).
HEK 293 cells expressing the human T-type channel alpha-1H (CaV 3.2) were maintained in DMEM supplemented with 10% heat-inactivated FBS, 100 units/ml Penicillin, 100 microg/ml Streptomycin, 150 microg/ml Zeocin, 300 microg/ml Geneticin. The cells were grown in a 5% CO2 humidified incubator at 37° C.
• 1. Cells were harvested and seeded in a poly-D-lysine coated black-sided clear bottom 384-well plate at density of 10,000 cells/well at 24 hours prior to assay. • 2. Incubate at 37° C. in 5% CO2. Day Two: • 1. Wash each well with assay buffer (see below) and leave 20 RI using plate washer, ELx-405 Select CW (BIO-TEK). • 2. Add 20 μL of assay buffer containing 6 μM Fluo-4-AM (Molecular Probes) and 0.005% Pluronic F-127 to each well. • 3. Incubate the plate at 37° C. for 1 hour. • 4. Wash each well assay buffer (see below) and leave 20 μl using plate washer, ELx-405 Select CW (BIO-TEK). • 5. Add 10 μl of compound solution into each well by FDSS6000 and leave the plate for 4.5 min, and then add 10 μl of potassium ionophore solution. • 6. Add 20 μl of high-K^+ depolarizing solution (see below) and monitor the change of fluorescent signal.
The IC50 values for compounds of the present invention were determined from 7-point dose-response studies. Curves were generated using the average of duplicate wells for each data point. Finally, the IC50 values are calculated with the best-fit dose curve determined by XLfit.

T1 sequence (O95180 whole entry): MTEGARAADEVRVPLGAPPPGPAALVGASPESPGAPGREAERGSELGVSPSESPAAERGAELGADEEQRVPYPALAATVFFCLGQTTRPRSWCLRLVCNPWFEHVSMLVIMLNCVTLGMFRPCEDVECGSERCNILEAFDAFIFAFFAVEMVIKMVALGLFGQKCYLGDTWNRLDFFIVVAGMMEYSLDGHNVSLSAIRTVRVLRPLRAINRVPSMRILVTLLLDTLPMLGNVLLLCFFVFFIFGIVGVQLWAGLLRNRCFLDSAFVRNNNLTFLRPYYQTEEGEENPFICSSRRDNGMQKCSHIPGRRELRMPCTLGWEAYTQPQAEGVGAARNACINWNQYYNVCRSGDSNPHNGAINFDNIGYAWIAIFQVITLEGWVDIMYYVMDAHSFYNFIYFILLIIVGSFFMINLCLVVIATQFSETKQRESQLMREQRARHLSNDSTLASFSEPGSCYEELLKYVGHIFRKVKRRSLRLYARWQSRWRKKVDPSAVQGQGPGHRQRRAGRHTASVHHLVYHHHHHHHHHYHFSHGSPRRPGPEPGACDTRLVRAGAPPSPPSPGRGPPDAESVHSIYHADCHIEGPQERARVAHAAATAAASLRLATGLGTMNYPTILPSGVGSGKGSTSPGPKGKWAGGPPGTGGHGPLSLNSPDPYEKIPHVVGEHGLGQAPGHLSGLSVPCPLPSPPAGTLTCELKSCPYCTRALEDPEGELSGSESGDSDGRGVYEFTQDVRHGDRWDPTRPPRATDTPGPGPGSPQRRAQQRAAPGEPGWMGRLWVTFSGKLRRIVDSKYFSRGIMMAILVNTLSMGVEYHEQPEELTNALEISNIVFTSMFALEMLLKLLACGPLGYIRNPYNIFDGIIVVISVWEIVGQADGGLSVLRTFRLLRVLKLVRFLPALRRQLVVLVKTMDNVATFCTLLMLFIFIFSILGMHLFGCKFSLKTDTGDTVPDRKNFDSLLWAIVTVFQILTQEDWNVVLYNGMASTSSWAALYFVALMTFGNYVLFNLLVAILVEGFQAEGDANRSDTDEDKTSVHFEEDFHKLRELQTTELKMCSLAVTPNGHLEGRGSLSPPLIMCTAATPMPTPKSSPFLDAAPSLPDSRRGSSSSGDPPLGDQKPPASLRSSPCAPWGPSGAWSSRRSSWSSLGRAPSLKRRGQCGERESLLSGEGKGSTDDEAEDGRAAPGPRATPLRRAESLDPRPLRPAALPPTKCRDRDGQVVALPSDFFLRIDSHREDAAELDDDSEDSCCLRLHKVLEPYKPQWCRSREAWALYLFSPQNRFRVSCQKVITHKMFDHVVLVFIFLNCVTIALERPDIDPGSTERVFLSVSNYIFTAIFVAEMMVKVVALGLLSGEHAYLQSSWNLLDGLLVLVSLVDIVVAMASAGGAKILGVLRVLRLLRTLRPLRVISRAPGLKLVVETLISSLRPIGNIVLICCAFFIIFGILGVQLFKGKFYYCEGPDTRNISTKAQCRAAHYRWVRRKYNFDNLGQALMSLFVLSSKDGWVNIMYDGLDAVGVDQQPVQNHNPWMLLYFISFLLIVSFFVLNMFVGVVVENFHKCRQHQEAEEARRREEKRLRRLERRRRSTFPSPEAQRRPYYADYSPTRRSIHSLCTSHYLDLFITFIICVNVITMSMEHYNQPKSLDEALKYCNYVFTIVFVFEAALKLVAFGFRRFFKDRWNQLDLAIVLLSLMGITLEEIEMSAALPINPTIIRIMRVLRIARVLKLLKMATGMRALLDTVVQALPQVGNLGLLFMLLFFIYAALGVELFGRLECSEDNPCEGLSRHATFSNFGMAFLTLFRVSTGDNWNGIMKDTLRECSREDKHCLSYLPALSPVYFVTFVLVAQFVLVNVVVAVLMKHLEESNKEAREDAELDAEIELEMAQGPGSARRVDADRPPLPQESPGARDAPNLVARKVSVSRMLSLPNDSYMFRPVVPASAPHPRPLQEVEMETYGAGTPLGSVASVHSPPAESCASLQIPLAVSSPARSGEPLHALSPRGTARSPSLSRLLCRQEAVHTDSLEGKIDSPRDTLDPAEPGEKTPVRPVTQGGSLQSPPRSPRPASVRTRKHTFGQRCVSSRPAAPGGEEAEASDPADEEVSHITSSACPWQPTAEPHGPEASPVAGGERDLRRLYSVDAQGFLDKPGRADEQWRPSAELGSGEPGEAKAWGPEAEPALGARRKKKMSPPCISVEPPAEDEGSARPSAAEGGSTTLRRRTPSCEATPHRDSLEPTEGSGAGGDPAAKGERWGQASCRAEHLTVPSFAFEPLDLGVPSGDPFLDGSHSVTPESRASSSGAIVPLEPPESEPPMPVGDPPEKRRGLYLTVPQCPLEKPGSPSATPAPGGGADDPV

Compound	IC50
C[C@@H](NC(=O)[C@H]1C[C@@H]1c1ccc(F)cc1Cl)c1cnc(OCC(F)(F)F)cn1 (relative stereo) [Example 268, (1S*,2S*)-2-(2-chloro-4-fluorophenyl)-N-((R)-1-(5-(2,2,2-trifluoroethoxy)pyrazin-2-yl)ethyl)cyclopropanecarboxamide]	≤ 300 nM
C[C@@H](NC(=O)[C@H]1C[C@@H]1c1cccc2cc[nH]c12)c1ccc(OCC(F)(F)F)cn1 (relative stereo) [Example 275, (1S*,2S*)-2-(1H-indol-7-yl)-N-((R)-1-(5-(2,2,2-trifluoroethoxy)pyridin-2-yl)ethyl)cyclopropanecarboxamide]	≤ 300 nM
C[C@@H](NC(=O)[C@H]1C[C@@H]1c1cc(F)cc(F)c1)c1ccc(OCC(F)(F)F)cn1 (relative stereo) [Example 253, (1S*,2S*)-2-(3,5-difluorophenyl)-N-((R)-1-(5-(2,2,2-trifluoroethoxy)pyridin-2-yl)ethyl)cyclopropanecarboxamide]	≤ 300 nM
C[C@@H](NC(=O)CCc1c[nH]c2ccccc12)c1ccc(OCC(F)(F)F)cn1 [Example 33, (R)-3-(1H-indol-3-yl)-N-(1-(5-(2,2,2-trifluoroethoxy)pyridin-2-yl)ethyl)propanamide]	≤ 300 nM
C[C@@H](NC(=O)C1CC1c1ccc2ccccc2n1)c1ccc(OCC(F)(F)F)nc1 (stereo in doubt) [Example 205, trans-2-(quinolin-2-yl)-N-((R)-1-(6-(2,2,2-trifluoroethoxy)pyridin-3-yl)ethyl)cyclopropanecarboxamide]	≤ 300 nM
C[C@@H](NC(=O)[C@H]1C[C@@H]1c1ccccc1)c1cnc(OCC(F)(F)F)cn1 (relative stereo) [Example 282, (1S*,2S*)-2-phenyl-N-((R)-1-(5-(2,2,2-trifluoroethoxy)pyrazin-2-yl)ethyl)cyclopropanecarboxamide]	≤ 300 nM
COc1ccc([C@H]2C[C@@H]2C(=O)N[C@H](C)c2cnc(OCC(F)(F)F)cn2)c(F)c1 (relative stereo) [Example 270, (1S*,2S*)-2-(2-fluoro-4-methoxyphenyl)-N-((R)-1-(5-(2,2,2-trifluoroethoxy)pyrazin-2-yl)ethyl)cyclopropanecarboxamide]	≤ 300 nM
COc1ccc([C@H]2C[C@@H]2C(=O)N[C@H](C)c2ccc(OCC(F)(F)F)cn2)cc1 (relative stereo) [Example 259, (1S*,2S*)-2-(4-methoxyphenyl)-N-((R)-1-(5-(2,2,2-trifluoroethoxy)pyridin-2-yl)ethyl)cyclopropanecarboxamide]	≤ 300 nM
C[C@@H](NC(=O)[C@@H]1C[C@H]1c1cccc2cc[nH]c12)c1ccc(OCC2CC2)cn1 (relative stereo) [Example 317, (1R*,2R*)-N-((R)-1-(5-(cyclopropylmethoxy)pyridin-2-yl)ethyl)-2-(1H-indol-7-yl)cyclopropanecarboxamide]	≤ 300 nM
C[C@@H](NC(=O)C1CC1c1ccc2cccnc2c1)c1ccc(OCC(F)(F)F)nc1 (stereo in doubt) [Example 206, trans-2-(quinolin-7-yl)-N-((R)-1-(6-(2,2,2-trifluoroethoxy)pyridin-3-yl)ethyl)cyclopropanecarboxamide]	≤ 300 nM
C[C@@H](NC(=O)[C@H]1C[C@@H]1c1c(F)cc(F)cc1F)c1ccc(OCC(F)(F)F)cn1 (relative stereo) [Example 250, (1S*,2S*)-N-((R)-1-(5-(2,2,2-trifluoroethoxy)pyridin-2-yl)ethyl)-2-(2,4,6-trifluorophenyl) cyclopropanecarboxamide]	≤ 300 nM
C[C@@H](NC(=O)C1CC1c1cc2cc(F)ccc2[nH]1)c1ccc(OCC(F)(F)F)nc1 (stereo partly drawn) [Example 210, trans-2-(5-fluoro-1H-indol-2-yl)-N-((R)-1-(6-(2,2,2-trifluoroethoxy)pridin-3-yl)ethyl)cyclopropanecarboxamide]	≤ 300 nM
COc1ccc([C@H]2C[C@@H]2C(=O)N[C@H](C)c2cnc(OCC(F)(F)F)cn2)cc1C (relative stereo) [Example 309, (1S*,2S*)-2-(4-methoxy-3-methylphenyl)-N-((R)-1-(5-(2,2,2-trifluomethoxy)pyrazin-2-yl)ethyl)cyclopropanecarboxamide]	≤ 300 nM
C[C@@H](NC(=O)C1CC1c1c[nH]c2c(F)cccc12)c1ccc(OCC(F)(F)F)cn1 (stereo in doubt) [Example 108, trans-2-(7-fluoro-1H-indol-3-yl)-N-((R)-1-(5-(2,2,2-trifluoroethoxy)pyridin-2-yl)ethyl)cyclopropanecarboxamide]	≤ 300 nM
C[C@@H](NC(=O)C1CC1c1ccc2ccn(C)c2c1)c1ccc(OCC(F)(F)F)cn1 (stereo in doubt) [Example 167, trans-2-(1-methyl-1H-indol-6-yl)-N-((R)-1-(5-(2,2,2-trifluoroethoxy)pyridin-2-yl)ethyl)cyclopropanecarboxamide]	≤ 300 nM
C[C@@H](NC(=O)[C@H]1C[C@@H]1c1cccc(OCc2ccccn2)c1)c1ccc(OCC(F)(F)F)cn1 (relative stereo) [Example 306, (1S*,2S*)-2-(3-(pyridin-2-ylmethoxy)phenyl)-N-((R)-1-(5-(2,2,2-trifluoroethoxy)pyridin-2-yl)ethyl)cyclopropanecarboxamide]	≤ 300 nM
C[C@@H](NC(=O)[C@@H]1C[C@H]1c1ccc2ccccc2n1)c1ccc(OCC(F)(F)F)cn1 (relative stereo) [Example 325, (1R*,2R*)-2-(quinolin-2-yl)-N-((R)-1-(5-(2,2,2-trifluoroethoxy)pyridin-2-yl)ethyl)cyclopropanecarboxamide]	≤ 300 nM
Cc1cccc([C@H]2C[C@@H]2C(=O)N[C@H](C)c2cnc(OCC(F)(F)F)cn2)c1 (relative stereo) [Example 273, (1S*,2S*)-2-m-tolyl-N-((R)-1-(5-(2,2,2-trifluoroethoxy)pyrazin-2-yl)ethyl)cyclopropanecarboxamide]	≤ 300 nM
C[C@@H](NC(=O)[C@H]1C[C@@H]1c1cc(F)ccc1F)c1ccc(OCC(F)(F)F)cn1 (relative stereo) [Example 327, (1S*,2S*)-2-(2,5-difluorophenyl)-N-((R)-1-(5-(2,2,2-trifluoroethoxy)pyridin-2-yl)ethyl)cyclopropanecarboxamide]	≤ 300 nM
C[C@@H](NC(=O)[C@@H]1C[C@H]1c1cc2ccccc2[nH]1)c1cnc(OCC(F)(F)F)cn1 (relative stereo) [Example 226, (1R*,2R*)-2-(1H-indol-2-yl)-N-((R)-1-(5-(2,2,2-trifluoroethoxy)pyrazin-2-yl)ethyl)cyclopropanecarboxamide]	≤ 300 nM
COc1ccc([C@H]2C[C@@H]2C(=O)N[C@H](C)c2ccc(OCC(F)(F)F)cn2)c(F)c1 (relative stereo) [Example 248, (1S*,2S*)-2-(2-fluoro-4-methoxyphenyl)-N-((R)-1-(5-(2,2,2-trifluoroethoxy)pyridin-2-yl)ethyl)cyclopropanecarboxamide]	≤ 300 nM
C[C@@H](NC(=O)[C@@H]1C[C@H]1c1cc2ccccc2[nH]1)c1ccc(OCC(F)(F)F)nc1 (relative stereo) [Example 224, (1R*,2R*)-2-(1H-indol-2-yl)-N-((R)-1-(6-(2,2,2-trifluoroethoxy)pyridin-3-yl)ethyl)cyclopropanecarboxamide]	≤ 300 nM
C[C@@H](NC(=O)C1CC1c1cn(C)c2ccccc12)c1ccc(OCC(F)(F)F)cn1 (stereo in doubt) [Example 106, trans-2-(1-methyl-1H-indol-3-yl)-N-((R)-1-(5-(2,2,2-trifluoroethoxy)pyridin-2-yl)ethyl)cyclopropanecarboxamide]	≤ 300 nM
Cc1cccc([C@H]2C[C@@H]2C(=O)N[C@H](C)c2ccc(OCC(F)(F)F)cn2)c1 (relative stereo) [Example 251, (1S*,2S*)-2-m-tolyl-N-((R)-1-(5-(2,2,2-trifluoroethoxy)pyridin-2-yl)ethyl)cyclopropanecarboxamide]	≤ 300 nM
C[C@@H](NC(=O)C1CC1c1cc2ccccc2cn1)c1ccc(OCC(F)(F)F)cn1 (stereo in doubt) [Example 172, trans-2-(isoquinolin-3-yl)-N-((R)-1-(5-(2,2,2-trifluoroethoxy)pyridin-2-yl)ethyl)cyclopropanecarboxamide]	≤ 300 nM
C[C@@H](NC(=O)C1CC1c1nc2ccccc2n1C)c1ccc(OCC(F)(F)F)cn1 (stereo in doubt) [Example 243, trans-2-(1-methyl-1H-benzo[d]imidazol-2-yl)-N-((R)-1-(5-(2,2,2-trifluoroethoxy)pyridin-2-yl)ethyl)cyclopropanecarboxamide]	≤ 300 nM
C[C@@H](NC(=O)CCCc1c[nH]c2ccccc12)c1ccc(OCC(F)(F)F)cn1 [Example 57, (R)-4-(1H-indol-3-yl)-N-(1-(5-(2,2,2-trifluoroethoxy)pyridin-2-yl)ethyl)butanamide]	≤ 300 nM
